Laboratory results published in patent US20240116985A1, “STAPLED PEPTIDES AND METHODS THEREOF” (priority 2020, published 2024).
Read-outs that look alike come from different tables or passages of the source.

Assays:
[1] = biological target: T1, beta-catenin/TCF4 engagement (Homo sapiens, UniProt P35222); assay: Nano-BRET target engagement assay (B-cat-Halo & TCF4-Luc in HEK293 cells); type: cell-based; conditions: read-out: NanoBRET Abs IC50
T1 construct: expressed in transfected cells; host or cells: HEK293
T1 sequence (P35222 1-781): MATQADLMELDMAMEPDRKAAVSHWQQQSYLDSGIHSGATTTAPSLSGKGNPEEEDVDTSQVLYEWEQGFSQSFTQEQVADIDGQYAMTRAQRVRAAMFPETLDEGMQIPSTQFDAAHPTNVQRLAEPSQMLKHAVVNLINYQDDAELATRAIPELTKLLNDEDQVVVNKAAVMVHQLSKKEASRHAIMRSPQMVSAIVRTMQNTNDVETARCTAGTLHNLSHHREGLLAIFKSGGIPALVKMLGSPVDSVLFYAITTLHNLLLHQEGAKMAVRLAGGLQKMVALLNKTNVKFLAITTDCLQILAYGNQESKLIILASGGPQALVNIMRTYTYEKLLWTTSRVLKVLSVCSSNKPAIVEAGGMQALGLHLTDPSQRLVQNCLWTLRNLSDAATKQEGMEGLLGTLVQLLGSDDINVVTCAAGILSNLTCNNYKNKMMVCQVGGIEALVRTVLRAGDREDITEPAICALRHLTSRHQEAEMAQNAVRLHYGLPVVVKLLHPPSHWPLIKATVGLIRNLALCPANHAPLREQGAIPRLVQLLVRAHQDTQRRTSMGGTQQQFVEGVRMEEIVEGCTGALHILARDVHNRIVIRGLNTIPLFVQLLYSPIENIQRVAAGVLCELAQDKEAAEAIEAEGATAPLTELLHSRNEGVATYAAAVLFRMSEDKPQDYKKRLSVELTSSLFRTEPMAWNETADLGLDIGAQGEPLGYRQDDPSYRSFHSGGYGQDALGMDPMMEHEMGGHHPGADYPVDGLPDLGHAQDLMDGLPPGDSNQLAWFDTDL

[2] = biological target: T2, full-length beta-Catenin (Uniprot ID P35222) (Homo sapiens, UniProt P35222); assay: Fluorescence polarization IC50 (beta-catenin / 5FAM-TCF4 10-53 competition); type: binding; conditions: fluorescence polarization; read-out: beta-Catenin FP IC50
T2 construct: 10 nM full-length beta-Catenin (Uniprot ID P35222)
T2 sequence (P35222 1-781): T1 sequence (P35222 1-781)

CC(=O)N1CCC[C@]12CC=CCCCC1(CCCC=CCCCOC(=O)N3CC[C@@](C(=O)N[C@@H](Cc4ccccc4Cl)C(=O)N[C@@H](Cc4csc5ccccc45)C(=O)N[C@@H](CO)C(N)=O)(C3)NC(=O)[C@H](CC(C)C)NC(=O)[C@H](Cc3ccccc3)NC(=O)[C@H](C)NC(=O)[C@H](C)NC(=O)[C@H](Cc3ccc(F)c(C(=O)O)c3)NC(=O)[C@H](CC(=O)O)NC1=O)NC(=O)[C@H](CC(C)(C)C)NC(=O)[C@H](CC(=O)O)NC2=O (stereo partly drawn) [I-2205, Ac-PL3-Asp-Npg-B5-Asp-4F3COOHF-Ala-Ala-Phe-Leu-PyrS2-2C1F-BztA-Ser-NH2]
IC50 [1]: 3200 nM
IC50 [2]: 18 nM

CC(=O)N1CCC[C@]12CC=CCCCC1(CCCC=CCCCOC(=O)N3CC[C@@](C(=O)N[C@@H](Cc4ccsc4)C(=O)N[C@@H](Cc4csc5ccccc45)C(=O)N[C@@H](C)C(N)=O)(C3)NC(=O)[C@H](CC(C)C)NC(=O)[C@H](Cc3ccccc3)NC(=O)[C@H](C)NC(=O)[C@H](CCC(N)=O)NC(=O)[C@H](Cc3ccc(F)c(C(=O)O)c3)NC(=O)[C@H](CC(=O)O)NC1=O)NC(=O)[C@H](CC(C)(C)C)NC(=O)[C@H](CC(=O)O)NC2=O (stereo partly drawn) [I-2206, Ac-PL3-Asp-Npg-B5-Asp-4F3COOHF-Gln-Ala-Phe-Leu-PyrS2-3Thi-BztA-Ala-NH2]
IC50 [1]: 7100 nM
IC50 [2]: 7 nM

CC(=O)N1CCC[C@]12CC=CCCCC1(CCCC=CCCCOC(=O)N3CC[C@@](C(=O)N[C@@H](Cc4ccsc4)C(=O)N[C@@H](Cc4csc5ccccc45)C(=O)N[C@@H](C)C(N)=O)(C3)NC(=O)[C@H](CC(C)C)NC(=O)[C@H](Cc3ccccc3)NC(=O)[C@H](C)NC(=O)C(C)(C)NC(=O)[C@H](Cc3ccc(F)c(C(=O)O)c3)NC(=O)[C@H](CC(=O)O)NC1=O)NC(=O)[C@H](CC(C)(C)C)NC(=O)[C@H](CC(=O)O)NC2=O (stereo partly drawn) [I-2207, Ac-PL3-Asp-Npg-B5-Asp-4F3COOHF-Aib-Ala-Phe-Leu-PyrS2-3Thi-BztA-Ala-NH2]
IC50 ([1]; absolute IC50): 3200 nM
IC50 [2]: 16 nM

CC(=O)N1CCC[C@]12CC=CCCCC1(CCCC=CCCCOC(=O)N3CC[C@@](C(=O)N[C@@H](Cc4ccsc4)C(=O)N[C@@H](Cc4csc5ccccc45)C(=O)N[C@@H](CCC(N)=O)C(N)=O)(C3)NC(=O)[C@H](CC(C)C)NC(=O)[C@H](Cc3ccccc3)NC(=O)[C@H](C)NC(=O)[C@H](C)NC(=O)[C@H](Cc3cc(C(=O)O)cc(C(F)(F)F)c3)NC(=O)[C@H](CC(=O)O)NC1=O)NC(=O)[C@H](CC(C)(C)C)NC(=O)[C@H](CC(=O)O)NC2=O (stereo partly drawn) [I-2208, Ac-PL3-Asp-Npg-B5-Asp-5F3Me3COOHF-Ala-Ala-Phe-Leu-PyrS2-3Thi-BztA-Gln-NH2]
IC50 ([1]; absolute IC50): 5700 nM
IC50 [2]: 27 nM

CC(=O)N1CCC[C@]12CC=CCCCC1(CCCC=CCCCOC(=O)N3CC[C@@](C(=O)N[C@@H](Cc4ccsc4)C(=O)N[C@@H](Cc4csc5ccccc45)C(=O)N[C@@H](CO)C(N)=O)(C3)NC(=O)[C@H](CC(C)C)NC(=O)[C@H](Cc3ccccc3)NC(=O)[C@H](C)NC(=O)[C@H](C)NC(=O)[C@H](Cc3cc(C(=O)O)cc(C(F)(F)F)c3)NC(=O)[C@H](CC(=O)O)NC1=O)NC(=O)[C@H](CC(C)(C)C)NC(=O)[C@H](CC(=O)O)NC2=O (stereo partly drawn) [I-2209, Ac-PL3-Asp-Npg-B5-Asp-5F3Me3COOHF-Ala-Ala-Phe-Leu-PyrS2-3Thi-BztA-Ser-NH2]
IC50 ([1]; absolute IC50): 18600 nM
IC50 [2]: 50 nM

CC(=O)N1CCC[C@]12CC=CCCCC1(CCCC=CCCCOC(=O)N3CC[C@@](C(=O)N[C@@H](Cc4ccccc4Cl)C(=O)N[C@@H](Cc4csc5ccccc45)C(=O)N[C@@H](CO)C(N)=O)(C3)NC(=O)[C@H](CC(C)C)NC(=O)[C@H](Cc3ccccc3)NC(=O)[C@H](C)NC(=O)[C@H](C)NC(=O)[C@H](Cc3cc(C(=O)O)cc(C(F)(F)F)c3)NC(=O)[C@H](CC(=O)O)NC1=O)NC(=O)[C@H](CC(C)(C)C)NC(=O)[C@H](CC(=O)O)NC2=O (stereo partly drawn) [I-2210, Ac-PL3-Asp-Npg-B5-Asp-5F3Me3COOHF-Ala-Ala-Phe-Leu-PyrS2-2C1F-BztA-Ser-NH2]
IC50 ([1]; absolute IC50): 12400 nM
IC50 [2]: 128 nM

CC(=O)N1CCC[C@]12CC=CCCCC1(CCCC=CCCCOC(=O)N3CC[C@@](C(=O)N[C@@H](Cc4ccsc4)C(=O)N[C@@H](Cc4csc5ccccc45)C(=O)N[C@@H](C)C(N)=O)(C3)NC(=O)[C@H](CC(C)C)NC(=O)[C@H](Cc3ccccc3)NC(=O)[C@H](C)NC(=O)[C@H](CCC(N)=O)NC(=O)[C@H](Cc3cc(C(=O)O)cc(C(F)(F)F)c3)NC(=O)[C@H](CC(=O)O)NC1=O)NC(=O)[C@H](CC(C)(C)C)NC(=O)[C@H](CC(=O)O)NC2=O (stereo partly drawn) [I-2211, Ac-PL3-Asp-Npg-B5-Asp-5F3Me3COOHF-Gln-Ala-Phe-Leu-PyrS2-3Thi-BztA-Ala-NH2]
IC50 ([1]; absolute IC50): 12900 nM
IC50 [2]: 23 nM

CC(=O)N1CCC[C@]12CC=CCCCC1(CCCC=CCCCOC(=O)N3CC[C@@](C(=O)N[C@@H](Cc4ccsc4)C(=O)N[C@@H](Cc4ccc(Cl)c(Cl)c4)C(=O)N[C@@H](CCC(N)=O)C(N)=O)(C3)NC(=O)[C@H](CC(C)C)NC(=O)[C@H](Cc3ccccc3)NC(=O)[C@H](C)NC(=O)[C@H](C)NC(=O)[C@H](Cc3cccc(C(=O)O)c3)NC(=O)[C@H](CC(=O)O)NC1=O)NC(=O)[C@H](CC(C)(C)C)NC(=O)[C@H](CC(=O)O)NC2=O (stereo partly drawn) [I-2216, Ac-PL3-Asp-Npg-B5-Asp-3COOHF-Ala-Ala-Phe-Leu-PyrS2-3Thi-34C1F-Gln-NH2]
IC50 ([1]; absolute IC50): 3400 nM
IC50 [2]: 7 nM

CC(=O)N1CCC[C@]12CC=CCCCC1(CCCC=CCCCOC(=O)N3CC[C@@](C(=O)N[C@@H](Cc4ccsc4)C(=O)N[C@@H](Cc4ccc(Cl)c(Cl)c4)C(=O)N[C@@H](C)C(N)=O)(C3)NC(=O)[C@H](C(C)C)NC(=O)[C@H](Cc3ccccc3)NC(=O)[C@H](C)NC(=O)[C@H](CCC(N)=O)NC(=O)[C@H](Cc3cccc(C(=O)O)c3)NC(=O)[C@H](CC(=O)O)NC1=O)NC(=O)[C@H](CC(C)(C)C)NC(=O)[C@H](CC(=O)O)NC2=O (stereo partly drawn) [I-2217, Ac-PL3-Asp-Npg-B5-Asp-3COOHF-Gln-Ala-Phe-Val-PyrS2-3Thi-34C1F-Ala-NH2]
IC50 ([1]; absolute IC50): 2100 nM
IC50 [2]: 6 nM

CC(=O)N1CCC[C@]12CC=CCCCC1(CCCC=CCCCOC(=O)N3CC[C@@](C(=O)N[C@@H](Cc4ccccc4C(F)(F)F)C(=O)N[C@@H](Cc4ccc(Cl)c(Cl)c4)C(=O)N[C@@H](CO)C(N)=O)(C3)NC(=O)[C@H](CC(C)C)NC(=O)[C@H](Cc3ccccc3)NC(=O)[C@H](C)NC(=O)[C@H](C)NC(=O)[C@H](Cc3cccc(C(=O)O)c3)NC(=O)[C@H](CC(=O)O)NC1=O)NC(=O)[C@H](CC(C)(C)C)NC(=O)[C@H](CC(=O)O)NC2=O (stereo partly drawn) [I-2218, Ac-PL3-Asp-Npg-B5-Asp-3COOHF-Ala-Ala-Phe-Leu-PyrS2-2F3MeF-34C1F-Ser-NH2]
IC50 ([1]; absolute IC50): 5100 nM
IC50 [2]: 34 nM

CC(=O)N1CCC[C@]12CC=CCCCC1(CCCC=CCCCOC(=O)N3CC[C@@](C(=O)N[C@@H](Cc4ccccc4C(F)(F)F)C(=O)N[C@@H](Cc4ccc(Cl)c(Cl)c4)C(=O)N[C@@H](C)C(N)=O)(C3)NC(=O)[C@H](CC(C)C)NC(=O)[C@H](Cc3ccccc3)NC(=O)[C@H](C)NC(=O)[C@H](CCC(N)=O)NC(=O)[C@H](Cc3cccc(C(=O)O)c3)NC(=O)[C@H](CC(=O)O)NC1=O)NC(=O)[C@H](CC(C)(C)C)NC(=O)[C@H](CC(=O)O)NC2=O (stereo partly drawn) [I-2219, Ac-PL3-Asp-Npg-B5-Asp-3COOHF-Gln-Ala-Phe-Leu-PyrS2-2F3MeF-34C1F-Ala-NH2]
IC50 ([1]; absolute IC50): 2700 nM
IC50 [2]: 21 nM

CC(=O)N1CCC[C@]12CC=CCCCC1(CCCC=CCCCOC(=O)N3CC[C@@](C(=O)N[C@@H](Cc4ccsc4)C(=O)N[C@@H](Cc4ccc(Cl)cc4)C(=O)N[C@@H](CCC(N)=O)C(N)=O)(C3)NC(=O)[C@H](CC(C)C)NC(=O)[C@H](Cc3ccccc3)NC(=O)[C@H](C)NC(=O)[C@H](C)NC(=O)[C@H](Cc3cccc(C(=O)O)c3)NC(=O)[C@H](CC(=O)O)NC1=O)NC(=O)[C@H](CC(C)(C)C)NC(=O)[C@H](CC(=O)O)NC2=O (stereo partly drawn) [I-2220, Ac-PL3-Asp-Npg-B5-Asp-3COOHF-Ala-Ala-Phe-Leu-PyrS2-3Thi-4C1F-Gln-NH2]
IC50 ([1]; absolute IC50): 16300 nM
IC50 [2]: 12 nM

CC(=O)N1CCC[C@]12CC=CCCCC1(CCCC=CCCCOC(=O)N3CC[C@@](C(=O)N[C@@H](Cc4ccsc4)C(=O)N[C@@H](Cc4ccc(Cl)cc4)C(=O)N[C@@H](C)C(N)=O)(C3)NC(=O)[C@H](C(C)C)NC(=O)[C@H](Cc3ccccc3)NC(=O)[C@H](C)NC(=O)[C@H](CCC(N)=O)NC(=O)[C@H](Cc3cccc(C(=O)O)c3)NC(=O)[C@H](CC(=O)O)NC1=O)NC(=O)[C@H](CC(C)(C)C)NC(=O)[C@H](CC(=O)O)NC2=O (stereo partly drawn) [I-2221, Ac-PL3-Asp-Npg-B5-Asp-3COOHF-Gln-Ala-Phe-Val-PyrS2-3Thi-4C1F-Ala-NH2]
IC50 ([1]; absolute IC50): 5000 nM
IC50 [2]: 11 nM
